Key:
Townes SCD model mouse = experiment: Effect on SCD anemia mice (RBC, Hb, HCT); format: in vivo
Protocol: Throughout the experimental stage, animals were housed in cages in an animal room with 24-hour continuous central air conditioning, temperature set at 20-26° C., relative air humidity set at 40-70%, and a 12-hour light/dark cycle. All animals had free access to food and sterilized drinking water. The animal strain was B6·Cg-Hbb^tm2(HBG1,HBB)Tow/Hbat^ml(HBA)Tow/ShmtJ mice, a Townes SCD model mouse where mouse endogenous hemoglobin is replaced by knocked-in human hemoglobin. Two weeks after birth, mice were ear-punched for identification, and the ear tissue was collected for PCR analysis to determine its genotype. Mice confirmed as B6·Cg-Hbb^tm2(HBG1,HBB)Tow/Hbat^ml(HBA)Tow/ShmtJ were grouped. […] Blood sampling was performed every other week. Mice showing symptoms of anemia were selected for dosing. Animals were randomly divided into groups, 6 animals per group: Vehicle control group (0.1 M meglumine aqueous solution; oral gavage; volume: 6.67 mL/kg), Comp-1 group (30 mpk; oral gavage; volume: 6.67 mL/kg), and EPO group (50 U/30 g body weight; SC injection; MyBioSource, cat. #: MBS650094, erythropoietin alpha). Dosing was administered three times a week (TIW) for 4 consecutive weeks. On days 14 and 28 of dosing, 70 μL of blood was collected from orbit. Collected blood samples were placed in heparin-anticoagulant tubes. 15 μL of the blood sample from the anticoagulant tube was aspirated and added to an Element HT5 Veterinary Hematology Analyzer. RBC, Hb, and HCT in the blood were measured according to the instrument's operating instructions. Data analysis was performed using GraphPad Prism 9.0. […]

MDS model mice = experiment: Effect on MDS model mice (RBC, Hb, HCT); format: in vivo, C57 mice; conditions: 50 U/30 g
[1] = 50 U/30 g SC TIW, After 2 weeks of dosing Week 2
[2] = 50 U/30 g SC TIW, After 4 weeks of dosing Week 4
[3] = 50 U/30 g group, Before dosing Week 0

EPO: EPO positive control; MyBioSource, cat. #: MBS650094, erythropoietin alpha
Arithmetic mean of HCT hematocrit (Townes SCD model mouse; [1]): 25.02%
Arithmetic mean of HGB hemoglobin content (Townes SCD model mouse; [1]): 7.52 g/dL
Arithmetic mean of RBC red blood cell count (Townes SCD model mouse; [1]): 5.80 M/μL
Arithmetic mean of HCT hematocrit (Townes SCD model mouse; [2]): 23.25%
Arithmetic mean of HGB hemoglobin content (Townes SCD model mouse; [2]): 6.87 g/dL
Arithmetic mean of RBC red blood cell count (Townes SCD model mouse; [2]): 5.43 M/μL
Arithmetic mean of HCT hematocrit (Townes SCD model mouse; [3]): 27.00%
Arithmetic mean of HGB hemoglobin content (Townes SCD model mouse; [3]): 8.37 g/dL
Arithmetic mean of RBC red blood cell count (Townes SCD model mouse; [3]): 6.25 M/μL
Therapeutic effect in the SCD mouse model (Townes SCD model mouse; 50 U/30 g, SC injection, TIW, 4 weeks): no therapeutic effect in the SCD mouse model
Improvement of RBC, Hb, or HCT values (MDS model mice): Neither Roxadustat nor EPO improved RBC, Hb, or HCT values

— patent US20260234146A1, “Use of Hypoxia-Inducible Factor-Prolyl Hydroxylase Inhibitor (HIF-PHI) in Rare Anemia” (Kind Pharmaceutical, priority 2023, published 2026)
